The test addresses Huntingtin (Homo sapiens, UniProt P42858).
Huntingtin, sequence (P42858 whole entry): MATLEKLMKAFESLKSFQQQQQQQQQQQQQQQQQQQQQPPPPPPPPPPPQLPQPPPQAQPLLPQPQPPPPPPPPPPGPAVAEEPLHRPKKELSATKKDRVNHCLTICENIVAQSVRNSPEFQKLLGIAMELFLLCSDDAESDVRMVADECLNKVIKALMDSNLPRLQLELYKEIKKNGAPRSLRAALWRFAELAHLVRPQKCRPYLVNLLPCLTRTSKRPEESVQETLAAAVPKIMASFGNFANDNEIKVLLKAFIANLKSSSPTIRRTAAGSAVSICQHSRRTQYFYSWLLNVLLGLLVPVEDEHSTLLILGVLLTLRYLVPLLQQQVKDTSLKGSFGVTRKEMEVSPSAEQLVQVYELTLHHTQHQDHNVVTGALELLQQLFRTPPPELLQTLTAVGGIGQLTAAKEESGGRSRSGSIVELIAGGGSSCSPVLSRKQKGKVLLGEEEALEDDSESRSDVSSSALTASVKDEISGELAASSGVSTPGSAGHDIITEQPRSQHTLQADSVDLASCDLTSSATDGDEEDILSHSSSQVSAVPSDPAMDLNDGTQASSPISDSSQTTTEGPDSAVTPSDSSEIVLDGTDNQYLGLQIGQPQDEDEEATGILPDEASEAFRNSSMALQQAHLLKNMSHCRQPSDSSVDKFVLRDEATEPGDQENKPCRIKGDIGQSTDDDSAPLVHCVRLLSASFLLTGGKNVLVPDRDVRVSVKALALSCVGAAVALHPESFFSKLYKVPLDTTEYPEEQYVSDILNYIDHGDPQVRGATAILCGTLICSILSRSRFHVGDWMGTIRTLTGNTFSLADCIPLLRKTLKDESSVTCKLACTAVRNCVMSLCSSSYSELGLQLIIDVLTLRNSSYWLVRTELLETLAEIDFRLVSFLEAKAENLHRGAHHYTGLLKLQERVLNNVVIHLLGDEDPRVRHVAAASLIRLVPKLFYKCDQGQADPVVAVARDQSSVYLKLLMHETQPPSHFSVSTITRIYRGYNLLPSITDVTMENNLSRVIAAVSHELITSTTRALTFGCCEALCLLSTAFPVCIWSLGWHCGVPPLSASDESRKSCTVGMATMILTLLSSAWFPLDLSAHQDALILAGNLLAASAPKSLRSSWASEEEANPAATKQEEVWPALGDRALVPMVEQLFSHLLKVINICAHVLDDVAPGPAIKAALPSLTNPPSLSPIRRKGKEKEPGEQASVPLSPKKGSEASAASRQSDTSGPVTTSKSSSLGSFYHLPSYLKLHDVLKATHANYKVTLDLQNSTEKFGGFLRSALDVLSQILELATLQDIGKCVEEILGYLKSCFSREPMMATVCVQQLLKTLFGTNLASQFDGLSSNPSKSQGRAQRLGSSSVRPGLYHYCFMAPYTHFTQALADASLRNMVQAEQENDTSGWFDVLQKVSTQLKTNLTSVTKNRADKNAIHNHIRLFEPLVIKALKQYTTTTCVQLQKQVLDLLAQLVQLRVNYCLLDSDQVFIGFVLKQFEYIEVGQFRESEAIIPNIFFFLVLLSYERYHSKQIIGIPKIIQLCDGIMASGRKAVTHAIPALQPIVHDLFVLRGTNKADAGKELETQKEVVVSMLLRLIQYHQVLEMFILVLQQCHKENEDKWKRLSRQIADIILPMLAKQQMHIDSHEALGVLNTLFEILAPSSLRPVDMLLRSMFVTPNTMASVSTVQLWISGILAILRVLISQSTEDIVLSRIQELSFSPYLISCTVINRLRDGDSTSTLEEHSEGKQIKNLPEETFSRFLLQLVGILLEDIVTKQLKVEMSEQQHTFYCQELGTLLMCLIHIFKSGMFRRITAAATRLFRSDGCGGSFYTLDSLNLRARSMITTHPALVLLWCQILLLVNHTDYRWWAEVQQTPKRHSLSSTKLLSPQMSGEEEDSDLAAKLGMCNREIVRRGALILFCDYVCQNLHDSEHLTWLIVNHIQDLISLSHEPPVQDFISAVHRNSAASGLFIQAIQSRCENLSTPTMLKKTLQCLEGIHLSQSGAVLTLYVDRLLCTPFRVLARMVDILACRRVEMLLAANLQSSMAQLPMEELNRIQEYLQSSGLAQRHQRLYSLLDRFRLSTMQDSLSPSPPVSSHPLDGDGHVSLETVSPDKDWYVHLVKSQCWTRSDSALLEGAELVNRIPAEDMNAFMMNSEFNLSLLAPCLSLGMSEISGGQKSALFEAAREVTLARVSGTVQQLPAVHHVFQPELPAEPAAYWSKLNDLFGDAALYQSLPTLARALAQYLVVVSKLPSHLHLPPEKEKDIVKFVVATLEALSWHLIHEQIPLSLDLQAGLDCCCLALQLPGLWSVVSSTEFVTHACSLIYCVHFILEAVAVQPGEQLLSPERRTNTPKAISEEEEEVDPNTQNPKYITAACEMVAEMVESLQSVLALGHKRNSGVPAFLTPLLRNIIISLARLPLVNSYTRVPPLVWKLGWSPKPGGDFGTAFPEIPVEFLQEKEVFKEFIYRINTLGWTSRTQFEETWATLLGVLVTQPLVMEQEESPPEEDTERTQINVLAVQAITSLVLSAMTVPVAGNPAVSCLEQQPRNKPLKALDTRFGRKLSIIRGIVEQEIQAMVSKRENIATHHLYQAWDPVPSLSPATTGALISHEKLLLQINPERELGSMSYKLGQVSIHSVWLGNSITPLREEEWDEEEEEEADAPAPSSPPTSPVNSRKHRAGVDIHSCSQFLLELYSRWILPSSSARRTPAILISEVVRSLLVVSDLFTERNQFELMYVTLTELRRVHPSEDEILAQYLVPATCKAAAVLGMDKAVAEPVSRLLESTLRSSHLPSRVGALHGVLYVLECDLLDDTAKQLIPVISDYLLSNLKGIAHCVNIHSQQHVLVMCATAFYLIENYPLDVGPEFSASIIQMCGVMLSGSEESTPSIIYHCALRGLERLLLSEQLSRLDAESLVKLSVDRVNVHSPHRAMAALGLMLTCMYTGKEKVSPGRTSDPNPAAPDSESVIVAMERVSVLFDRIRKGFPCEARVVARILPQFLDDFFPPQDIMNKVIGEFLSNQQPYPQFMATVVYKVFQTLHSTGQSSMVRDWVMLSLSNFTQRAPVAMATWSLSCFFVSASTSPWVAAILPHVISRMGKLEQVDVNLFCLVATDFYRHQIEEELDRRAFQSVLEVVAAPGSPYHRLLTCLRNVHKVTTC
The IC50 is the concentration that inhibits the measured activity by half. `C=CCOc1c(OC)cc(CN=Nc2cccc(C(=O)O)c2)c(Br)c1Br` showed an IC50 of 2280 nM.
As for `O=C1C(=O)N(c2nc3ccc(Cl)cc3s2)C(c2ccco2)C1C(=O)c1ccco1` (stereo unspecified), the figure is 987 nM; as for `CC(C)c1ccc(C2c3[nH]c4ccccc4c3Cc3c(O)n(-c4ccccc4C(=O)N4CCC[C@@H]4C(=O)O)c(=O)n32)cc1` (stereo partly specified), 2840 nM.
On to `CC(C)c1ccc(C2c3[nH]c4ccccc4c3Cc3c(O)n(-c4ccccc4C(=O)N4CCC[C@H]4C(=O)O)c(=O)n32)cc1` (stereo partly specified), for which half-maximal inhibition (IC50) was put at 3350 nM.
To `CCCOc1cccc(C2C(C(=O)c3ccc(C)o3)C(=O)C(=O)N2c2nc(C)c(C(C)=O)s2)c1` (stereo unspecified) belongs 4060 nM; to `CC(=O)C1C(=O)C(=O)N(c2cc(C(C)(C)C)on2)C1c1ccc(Br)cc1` (stereo unspecified), 2490 nM.
As for `CCN(CC)C(=O)NC1CC2CCCC(C1)N2Cc1ccccc1` (stereo unspecified) [1,1-diethyl-3-[9-(phenylmethyl)-9-azabicyclo[3.3.1]nonan-3-yl]urea], the figure is 2830 nM.
For the molecule `CCCOc1ccc(-n2c(O)cc(SC(=N)NN=C(C)c3cccs3)c2O)cc1` [2,5-dioxo-1-(4-propoxyphenyl)-3-pyrrolidinyl 2-[1-(2-thienyl)ethylidene]hydrazinecarbimidothioate], the IC50 was 7760 nM.
As for `COc1ccc2nc(N3C(=O)C(=O)C(C(=O)c4ccco4)C3c3ccc(OC)c(OC)c3)sc2c1` (stereo unspecified) [2-(3,4-dimethoxyphenyl)-3-(furan-2-carbonyl)-4-hydroxy-1-(6-methoxy-1,3-benzothiazol-2-yl)-2H-pyrrol-5-one], the figure is 2040 nM; as for `N#CC(C#N)C(=Nc1ccc(F)cc1)SCc1cccc(Br)c1` [2-[(3-bromophenyl)methylsulfanyl-[(4-fluorophenyl)amino]methylidene]propanedinitrile], 7570 nM; as for `Cc1cc(N2C(=O)C(=O)C(C(=O)c3cc4ccccc4o3)C2c2cccc(Cl)c2)no1` (stereo unspecified) [3-(1-benzofuran-2-ylcarbonyl)-2-(3-chlorophenyl)-1-(5-methyl-1,2-oxazol-3-yl)-4-oxidanyl-2H-pyrrol-5-one], 1190 nM.
As for `Cc1ccc2nc(N3C(=O)C(=O)C(C(=O)c4ccco4)C3c3ccc(C)o3)sc2c1` (stereo unspecified) [3-[2-furanyl(oxo)methyl]-4-hydroxy-1-(6-methyl-1,3-benzothiazol-2-yl)-2-(5-methyl-2-furanyl)-2H-pyrrol-5-one;oxalic acid], the figure is 624 nM.
As for `Cc1ccc2c(c1)C(=NNc1cccc(C(=O)O)c1)C(=O)N2C` [3-[(2Z)-2-(1,5-dimethyl-2-oxidanylidene-indol-3-ylidene)hydrazinyl]benzoic acid], the figure is 5070 nM; as for `Cc1[nH]n(C(N)=S)c(=O)c1N=Nc1c(Br)cc(Br)cc1Br` [3-methyl-5-oxo-4-[(2,4,6-tribromophenyl)diazenyl]-4H-pyrazole-1-carbothioamide], 5730 nM; as for `N#CC1=c2sc(=Cc3ccco3)c(=O)n2C(=N)C(C#N)C1c1ccco1` (stereo unspecified) [5-amino-7-(furan-2-yl)-2-(furan-2-ylmethylidene)-3-oxo-7H-[1,3]thiazolo[3,2-a]pyridine-6,8-dicarbonitrile], 5380 nM.
`CCOC(=O)C1=C(C)N=C(SCc2cc(=O)[nH][nH]2)C(C#N)C1c1cccs1` (stereo unspecified) [5-cyano-2-methyl-6-[(5-oxo-1,2-dihydropyrazol-3-yl)methylthio]-4-thiophen-2-yl-1,4-dihydropyridine-3-carboxylic acid ethyl ester] returned an IC50 of 7400 nM.
In turn, `N#CC(C(=O)Nc1ccc(Cl)cc1)C(=S)Nc1ccccc1` (stereo unspecified) [(Z)-3-anilino-N-(4-chlorophenyl)-2-cyano-3-sulfanylprop-2-enamide] showed a half-maximal inhibitory concentration (IC50) of 6140 nM.
For the molecule `CC(=NNC(=N)Sc1cc(O)n(-c2cccc(Cl)c2)c1O)c1cccs1` [MLS000579124], the half-inhibitory concentration (IC50) came to 5190 nM.
On to `N#CC1C(=O)NC(c2ccc(-c3cc(Cl)ccc3Cl)o2)N(c2ccccc2)C1=S` (stereo unspecified) [MLS000592167], for which the IC50 worked out at 1470 nM.
To `CCc1nnc(NS(=O)(=O)c2ccc(N=CCC(=O)c3ccc(C)cc3)cc2)s1` [SMR000211931] belongs 1900 nM; to `C=c1c(C#N)c2[nH]c(N)c(C#N)c(C)c-2c1=Cc1ccc(-c2ccccc2C(=O)O)o1` [SMR000277284], 2570 nM.
As for `COC1=CC(=Cc2c(-c3ccccc3)[nH]n(-c3ccc(NC(C)=O)cc3)c2=O)C=CC1=O` [SMR000299432], the figure is 2900 nM.
With `O=C(O)c1ccc(-n2c(O)cc(SC(=Nc3ccc(F)cc3)NCc3ccc4c(c3)OCO4)c2O)cc1` [SMR000313486], it took 2890 nM to reach half-maximal inhibition (IC50).
As for `Oc1ccc(CN=Nc2ccnc3cc(Cl)ccc23)c(O)c1O` [SMR000590557], the figure is 2500 nM; as for `N=C(NN=Cc1cccs1)Sc1cc(O)n(-c2ccc(Br)cc2)c1O` [[1-(4-bromophenyl)-2,5-dioxopyrrolidin-3-yl] N'-[(E)-thiophen-2-ylmethylideneamino]carbamimidothioate], 8270 nM; as for `COC(=O)c1sc(N2C(=O)C(=O)C(C(=O)c3ccc(C)o3)C2c2ccc([N+](=O)[O-])cc2)nc1C` (stereo unspecified) [methyl 2-[4-hydroxy-3-(5-methylfuran-2-carbonyl)-2-(4-nitrophenyl)-5-oxo-2H-pyrrol-1-yl]-4-methyl-1,3-thiazole-5-carboxylate], 636 nM.

The record behind these values is BindingDB's records for doi:10.7270/Q2N58K09 (The Scripps Research Institute Molecular Screening Center, 2013).
